The target in test [1] is T1, SSTR4 (Homo sapiens, UniProt P31391).
T1 construct: host or cells: CHO-K1
In words: Inhibition of forskolin stimulated cAMP in CHO-K1 cells overexpressing SSTR4. Type of test: cell-based. As to conditions: read-out: SSTR4 Activity pEC50 (converted). The procedure, abridged:
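CHO-K1 cells overexpressing SSTR4 treated 30 min at room temperature with compound in Krebs Ringer buffer containing 0.5% BSA, 300 μM IBMX and 350 nM forskolin. Intracellular cAMP measured by HTRF LANCE Ultra (665/615 nm); pEC50 values reported.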

The target of test [2] is T1, SSTR4. As to the kind of experiment: SSTR4 I-125 somatostatin competition binding assay (CHO-K1 membranes). As to conditions: competition with I-125 somatostatin, membranes from CHO-K1 overexpressing SSTR4; read-out: SSTR4 Binding pIC50 (converted). Here is the method:
SSTR4 I-125 Somatostatin Competition Binding Assay
Membranes from CHO-K1 cells overexpressing SSTR4 are purchased from Perkin Elmer (catalog number ES-524-M400UA). Test compounds are suspended in DMSO and then diluted in assay buffer (25 mM HEPES pH 7.4, 10 mM MgCl2, 1 mM CaCl2), 0.5% BSA) plus 0.2 nM I-125 labeled somatostatin (Perkin Elmer catalog number NEX389). Fifty μL of compound/I-125 somatostatin in assay buffer are added per well to 96-well poly-propylene plate. Then 1 μg of SSTR4 membranes in 50 μL assay buffer are added per well. The Plate is incubated for 60 minutes at room temperature. FilterMat A filters (Perkin Elmer catalog number 1450-421) are pre-soaked in 0.5% PEI (Sigma catalog number P3143). The contents of the assay plate are transferred to filters with a TomTech harvester and washed 5 times with 20 mM HEPES, 100 mM NaCl. The filters are dried in a microwave oven then transferred to sample bag containing a scintillator sheet (Perkin Elmer catalog number 1450-441). The scintillator sheets are melted to filters using a heat block. The filters are then read in a MicroBeta scintillation counter. Binding Ki curves are generated using Activity Base for Screening Data Management and the results are reported as pIC50.

For the next test, the target named is T2, SSTR1 (Homo sapiens, UniProt P30872).
T2 construct: purchased Perkin Elmer ES-520-M400UA; host or cells: CHO-K1 membranes
T2 sequence (P30872 whole entry): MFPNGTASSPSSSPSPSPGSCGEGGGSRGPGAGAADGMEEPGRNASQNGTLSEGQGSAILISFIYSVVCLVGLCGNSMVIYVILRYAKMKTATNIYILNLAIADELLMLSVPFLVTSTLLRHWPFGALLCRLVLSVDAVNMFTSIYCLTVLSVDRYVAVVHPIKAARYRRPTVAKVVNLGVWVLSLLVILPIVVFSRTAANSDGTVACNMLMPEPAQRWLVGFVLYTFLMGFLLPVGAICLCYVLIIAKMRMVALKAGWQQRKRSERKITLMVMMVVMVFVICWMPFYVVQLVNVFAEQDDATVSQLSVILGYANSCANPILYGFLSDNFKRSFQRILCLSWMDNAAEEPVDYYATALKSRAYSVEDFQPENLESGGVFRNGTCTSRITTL
In words: SSTR1 I-125 somatostatin competition binding assay for selectivity versus SSTR1 (CHO-K1 membranes). To be noted: competition with I-125 somatostatin, membranes from CHO-K1 overexpressing SSTR1; read-out: SSTR1 Binding pIC50 (converted). Here is the method:
SSTR1 I-125 Somatostatin Competition Binding Assay for Selectivity Versus SSTR1
Membranes from CHO-K1 cells overexpressing SSTR1 are purchased from Perkin Elmer (catalog number ES-520-M400UA). Test compounds are suspended in DMSO and then diluted in assay buffer (25 mM HEPES pH 7.4, 10 mM MgCl2, 1 mM CaCl2), 0.5% BSA) plus 0.4 nM I-125 labeled somatostatin (Perkin Elmer catalog number NEX389). Fifty μL of compound/I-125 somatostatin in assay buffer are added per well to 96-well poly-propylene plate. Then 10 μg of SSTR1 membranes in 50 μL assay buffer are added per well. The plate is incubated for 60 minutes at room temperature. FilterMat A filters (Perkin Elmer catalog number 1450-421) are pre-soaked in 0.5% PEI (Sigma catalog number P3143). The contents of the assay plate are transferred to filters with a TomTech harvester and washed 5 times with 20 mM HEPES, 100 mM NaCl. The filters are dried in a microwave oven then transferred to sample bag containing a scintillator sheet (Perkin Elmer catalog number 1450-441). The scintillator sheets are melted to the filters using a heat block. The filters are then read in a MicroBeta scintillation counter. Binding Ki curves are generated using Activity Base for Screening Data Management and the results are reported as pIC50.

T1 sequence (P31391 whole entry): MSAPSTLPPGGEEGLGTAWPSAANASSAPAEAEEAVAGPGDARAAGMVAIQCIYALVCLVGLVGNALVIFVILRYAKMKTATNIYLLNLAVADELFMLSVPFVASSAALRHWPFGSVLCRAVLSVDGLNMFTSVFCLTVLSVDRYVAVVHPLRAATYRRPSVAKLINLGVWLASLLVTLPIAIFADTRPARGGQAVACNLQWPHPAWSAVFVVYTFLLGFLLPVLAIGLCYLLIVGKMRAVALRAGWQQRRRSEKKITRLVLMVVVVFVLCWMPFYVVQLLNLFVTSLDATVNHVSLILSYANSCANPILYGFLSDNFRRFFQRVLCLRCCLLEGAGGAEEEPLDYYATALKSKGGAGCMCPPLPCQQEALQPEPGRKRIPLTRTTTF

Consider `CN1CCC[C@H]1CC(=O)NC(C)(C)COc1ncccc1C(F)(F)F` [Example 48, (S)-N-(2-methyl-1-((3-(trifluoromethyl)pyridin-2-yl)oxy)propan-2-yl)-2-(1-methylpyrrolidin-2-yl)acetamide], for which the EC50 on SSTR4 [1] was 25.1 nM. In addition, the results for the IC50 at SSTR4 [2] and at SSTR1 were 316 nM and 15800 nM, respectively.
The corresponding values for `Cc1cccnc1OCC1(NC(=O)C(C)C2CCCN2C)CC1` (stereo not drawn) [Example 71, N-(1-(((3-methylpyridin-2-yl)oxy)methyl)cyclopropyl)-2-(1-methylpyrrolidin-2-yl)propanamide] are 31.6 nM, 251 nM and 25100 nM.
Consider `COc1ccc(C(C)(C)NC(=O)[C@H](C)CN2CCC2)cc1` (single isomer, unassigned) [Example 138], for which the EC50 at SSTR4 [1] is 12.6 nM. The results for the IC50 on SSTR4 [2] and on SSTR1 were 126 nM and 15800 nM, respectively.
As for `O=C(CCN1CCC1)N[C@H](c1ccccc1)C(F)F` (single isomer, unassigned) [Example 201], on SSTR4 [1], the EC50 is 31.6 nM. In addition, the IC50 on SSTR4 [2] is 63.1 nM; at SSTR1 it was 25100 nM.
Take `Cc1ccc(C(C)(C)NC(=O)[C@@H](C)CN2CCC2)cc1` (single isomer, unassigned) [Example 149]: the EC50 at SSTR4 [1] was 3.16 nM. For the same molecule, the IC50 at SSTR4 [2] is 50.1 nM; on SSTR1, 6310 nM.
In the case of `CN1CCC[C@@H]1CC(=O)NC(C)(C)c1cccc(Cl)c1Cl` [Example 96, (R)-N-(2-(2,3-dichlorophenyl)propan-2-yl)-2-(1-methylpyrrolidin-2-yl)acetamide], on SSTR4 [1], the EC50 is 15.8 nM. The IC50 on SSTR4 [2] is 200 nM; on SSTR1, 15800 nM.
The corresponding values for `CN1CCCCC1CC(=O)NC(C)(C)c1ccc(Cl)cc1` (stereo not drawn) [Example 30, N-(2-(4-chlorophenyl)propan-2-yl)-2-(1-methylpiperidin-2-yl)acetamide] are 31.6 nM, 126 nM and 31600 nM.
The corresponding values for `C[C@H](NC(=O)CC1CCCCN1C)c1ccc(Cl)cc1` (stereo partly drawn) [Example 60, N-((S)-1-(4-chlorophenyl)ethyl)-2-(1-methylpiperidin-2-yl)acetamide] are 100 nM, 501 nM and 25100 nM.
On to `CN1CCCC1CC(=O)NC(C)(C)COc1ncccc1C(F)(F)F` (stereo not drawn) [Example 28, N-(2-methyl-1-((3-(trifluoromethyl)pyridin-2-yl)oxy)propan-2-yl)-2-(1-methylpyrrolidin-2-yl)acetamide], for which the EC50 on SSTR4 [1] was 20 nM. Moreover, the IC50 on SSTR4 [2] was 251 nM; on SSTR1, 15800 nM.
The corresponding values for `CC[C@@H](CN1CCC1)C(=O)NC(C)(C)c1ccc(F)cc1` (single isomer, unassigned) [Example 183] are 50.1 nM, 501 nM and 20000 nM.
The like results for `CC[C@H](CN1CCC1)C(=O)NC(C)(C)c1cccc(F)c1` (single isomer, unassigned) [Example 184] were, in that order, 0.631 nM, 15.8 nM and 2000 nM.
The like results for `CN1CCCCC1CC(=O)NC(C)(C)c1nn(C)c2ccccc12` (stereo not drawn) [Example 2, N-(2-(1-methyl-1H-indazol-3-yl)propan-2-yl)-2-(1-methylpiperidin-2-yl)acetamide] were, in that order, 6.31 nM, 63.1 nM and 3160 nM.
Consider `O=C(CCN1CCC1)NC(c1cccc(F)c1)C(F)(F)F` (single isomer, unassigned) [Example 208], for which, on SSTR4 [1], the EC50 was 3.16 nM. In addition, the IC50 at SSTR4 [2] is 39.8 nM; at SSTR1 it was 15800 nM.
As to `CN1CCC[C@H]1CC(=O)NC(C)(C)c1nn(C)c2ccccc12` [Example 4, (S)-N-(2-(1-methyl-1H-indazol-3-yl)propan-2-yl)-2-(1-methylpyrrolidin-2-yl)acetamide], the EC50 at SSTR4 [1] is 25.1 nM. In addition, the IC50 is 158 nM at SSTR4 [2] and 10000 nM on SSTR1.
The corresponding values for `CN1CCC[C@H]1CC(=O)NC(C)(C)c1cccc(Cl)c1Cl` [Example 80, (S)-N-(2-(2,3-dichlorophenyl)propan-2-yl)-2-(1-methylpyrrolidin-2-yl)acetamide] are 25.1 nM, 316 nM and 20000 nM.
The corresponding values for `CC(C)[C@@H](CN1CCC1)C(=O)N[C@H](c1ccccc1)C(F)F` [Example 179, (S)-2-(azetidin-1-ylmethyl)-N-((R)-2,2-difluoro-1-phenylethyl)-3-methylbutanamide] are 0.2 nM, 2 nM and 251 nM.
For the molecule `CN1CCCC1CC(=O)NC(C)(C)c1nccc2ccccc12` (stereo not drawn) [Example 203, N-(2-(isoquinolin-1-yl)propan-2-yl)-2-(1-methylpyrrolidin-2-yl)acetamide], the EC50 at SSTR4 [1] was 3.98 nM. Also, the results for the IC50 at SSTR4 [2] and on SSTR1 were 158 nM and 3980 nM, respectively.
The corresponding values for `CN1CCCCC1CC(=O)NC(C)(C)c1cccc(Cl)c1` (stereo not drawn) [Example 11, N-(2-(3-chlorophenyl)propan-2-yl)-2-(1-methylpiperidin-2-yl)acetamide] are 39.8 nM, 200 nM and 25100 nM.
With `CN1CCCCC1CC(=O)NC(C)(C)c1nccc2ccccc12` (stereo not drawn) [Example 6, N-(2-(isoquinolin-1-yl)propan-2-yl)-2-(1-methylpiperidin-2-yl)acetamide], on SSTR4 [1], the EC50 was 1.58 nM. Further, the figures for the IC50 at SSTR4 [2] and at SSTR1 were 25.1 nM and 2510 nM, respectively.
Turning to `C[C@@H](CN1CCC1)C(=O)NC(C)(C)c1ccccc1Cl` (single isomer, unassigned) [Example 134], the EC50 at SSTR4 [1] is 1.26 nM. Besides, the IC50 at SSTR4 [2] was 50.1 nM; at SSTR1 it was 6310 nM.
The corresponding values for `O=C(CCN1CCC1)NC(c1cc(F)ccc1F)C(F)F` (stereo not drawn) [Example 167, 3-(azetidin-1-yl)-N-(1-(2,5-difluorophenyl)-2,2-difluoroethyl)propanamide] are 25.1 nM, 251 nM and over 50100 nM.
As to `Cc1c(Cl)cccc1C(C)(C)NC(=O)C[C@H]1CCCN1C` [Example 119, (R)-N-(2-(3-chloro-2-methylphenyl)propan-2-yl)-2-(1-methylpyrrolidin-2-yl)acetamide], the EC50 at SSTR4 [1] was 15.8 nM. The IC50 is 251 nM on SSTR4 [2] and 20000 nM on SSTR1.
The like results for `Cc1cccnc1OCC1(NC(=O)[C@H](C)[C@@H]2CCCN2C)CC1` (single isomer, unassigned) [Example 127] were, in that order, 7.94 nM, 126 nM and 7940 nM.
On to `CC[C@@H](CN1CCC1)C(=O)N[C@H](c1ccccc1)C(F)F` [Example 180, (S)-2-(azetidin-1-ylmethyl)-N-((R)-2,2-difluoro-1-phenylethyl)butanamide], for which, at SSTR4 [1], the EC50 was 0.126 nM. For the same molecule, the IC50 on SSTR4 [2] is 3.16 nM; on SSTR1, 631 nM.
For `C[C@@H](CN1CCC1)C(=O)NC1(c2ccccc2F)CC1` (single isomer, unassigned) [Example 151], the EC50 on SSTR4 [1] was 7.94 nM. Besides, the IC50 at SSTR4 [2] is 100 nM; at SSTR1, 7940 nM.
The like results for `Cc1c(F)cccc1C(C)(C)NC(=O)CCN1CCC1` [Example 166, 3-(azetidin-1-yl)-N-(2-(3-fluoro-2-methylphenyl)propan-2-yl)propanamide] were, in that order, 12.6 nM, 50.1 nM and 39800 nM.
As to `Cc1cccc2c(C(C)(C)NC(=O)CC3CCCCN3C)noc12` (stereo not drawn) [Example 41, N-(2-(7-methylbenzo[d]isoxazol-3-yl)propan-2-yl)-2-(1-methylpiperidin-2-yl)acetamide], the EC50 at SSTR4 [1] is 3.16 nM. Further, the IC50 was 63.1 nM on SSTR4 [2] and 6310 nM at SSTR1.

For the origin of these results see patent publication US20230150981A1, “N-HETEROARYLALKYL-2-(HETEROCYCLYL AND HETEROCYCLYLMETHYL) ACETAMIDE DERIVATIVES AS SSTR4 AGONISTS” (Takeda Pharmaceutical Compnay Limited, priority 2020, published 2023).
